# Assays:
# hNav1.7 = biological target: T1, hNav1.7 (Homo sapiens, UniProt Q15858); experiment: Fluorescent (FRET) based sodium channel assay, hNav1.7; assay type: cell-based; details: HEK293 stably transfected with hNav1.7, 20 μM veratridine, read-out: hNav 1.7 IC50
# T1 construct: expressed in transfected cells; host or cells: HEK293
# Method: Two isoforms of the channel were examined: hNav1.5, a cardiac sodium channel associated with arrhythmias, and hNav1.7, an isoform found in the peripheral nervous system.
# HEK293 cells stably transfected with either hNav1.5 or hNav1.7 were plated at approximately 11,000-20,000 cells/well in flat bottom, poly-D-lysine coated black-wall, clear-bottom, 384-well plates (Becton Dickinson, Bedford, Mass.), and incubated overnight at 37° C. in a 10% CO2 atmosphere in growth medium. Cells were washed with 0.03 mL of Dulbecco's phosphate buffered saline (D-PBS) containing calcium and magnesium. Cells were then incubated with 0.025 mL of a solution containing 10 μM CC2-DMPE and 0.02% pluronic acid in D-PBS with calcium and magnesium; supplemented with 10 mM glucose, and 10 mM Hepes-NaOH, pH 7.4. […] Afterwards, cells were incubated in the dark at 25° C. for 45 min with 0.025 mL of a solution containing 5 μM DiSBAC2(3) in VIPR-S, in the absence or presence of test compound. At the end of the incubation period, the plate was placed in a FLIPR TETRA instrument (MDS Analytical Technologies, Sunnyvale Calif.), illuminated at 390-420 nm, and fluorescence emissions were recorded at approximately 1 Hz at 460 and 580 nm. Following a 7 second baseline reading, 0.025 mL of VIPR-S containing 10 μM veratridine for Nav1.5 or 20 μM veratridine for Nav1.7 was added to each well, and the emissions of both dyes were recorded for an additional 33 seconds. The change in fluorescence resonance energy transfer (FRET) ratio (F/F0) was calculated as: F/F0=((A460/A580/(I460/I580) where A and I represent the readings after or before addition of veratridine, respectively, at the indicated wavelengths. For I, the readings from 2-5 seconds were averaged, and for A, readings from 3 seconds after the signal had reached a plateau level (usually within 30-40 s) were also averaged. Triplicate measurements were performed for each experimental condition and the data were averaged.
# [1] = mouse, in vivo, ip
# [2] = tested on: human prostate xenograft PC3; experiment: PC3 xenograft study; assay type: in vivo; details: mice bearing PC3 xenografts; 10 mg/kg ip every other day
# Method: Intraperitoneally (ip) 10 mg/kg of racemic (±)-1 and each enantiomer was administered in mice bearing PC3 xenografts (FIG. 16). This dose was administered qd every other day for 24 days and effects on reducing the tumor volume were measured.
# PC-3 cell line (ATCC, Manassas, Va.) was cultured in RPMI-1640 with L-glutamine (Mediatech Inc., Herdon, Va.) containing 5% fetal bovine serum (FBS), 2.5 mM L-glutamine at 37° C. with 5% CO2.
# Male athymic balbc/nude mice (18-22 g) were injected with 3×106 (0.3 mL) of the human prostate cancer cells (PC3). The human prostate cancer cells were injected in the subcutaneous tissue of the right axillary region of the mice. One week after the injection, the mice were randomly sorted into four groups with 6 mice per group. […] The stock of each compound was added to polyethylene glycol 400 (PEG) (Hampton) and PBS in a 1:1 ratio. The test concentrations were obtained by diluting with PEG/PBS. The tumor-bearing mice received an intraperitoneal injection (IP) with either 10 mg/kg of (±)-1, R-(−)-1 or S-(+)-1 or vehicle control respectively once every other day for 4 weeks. At the same time, the tumor size of each mouse was measured by caliper and calculated by the formula: Length×width×height/2.
# hERG potassium channels = biological target: T2, hERG potassium channels (Homo sapiens, UniProt Q12809); experiment: hERG binding assay ([35S]MK-499 displacement); details: [35S]MK-499, HEK-293 hERG membranes
# T2 construct: expressed in transfected cells; host or cells: HEK-293 (membranes)
# Text: All four compounds were also counter-screened for human ether-a-go-go-related gene (hERG) activity against the radio-ligand MK-0499. Blockade of hERG K^+ channels is widely regarded as the predominant cause of drug-induced QT prolongation. (Aronov, A J Med Chem. 2006 Nov. 16; 49(23):6917-21).
# MK-499, a potent hERG blocker, was used in a ligand binding assay to evaluate the binding of test compounds to hERG potassium channels as previously described (Wang, J et al. Am J Physiol Heart Circ Physiol, 2003, 284: H256-H267).^2 Test compounds were incubated with 0.05 nM of radiolabeled MK-499 ([35S]MK-499; specific Activity=1,279,010 μCi/μmol) in an assay buffer solution (70 mM NaCl, 60 mM KCl, 10 mM HEPES/NaOH (pH 7.4), 2 mM MgCl2, 1 mM CaCl2) also containing membranes isolated from HEK-293 cells stably expressing hERG channels in 96 well polypropylene deep-well assay plates at room temperature (25° C.) for >90 min. Assay plates were rinsed three time with buffer (130 mM NaCl, 10 mM HEPES/NaOH (pH 7.4), 2 mM MgCl2, 1 mM CaCl2) and the solution transferred to a Packard FilterMate Universal Harvester apparatus and filtered using PerkinElmer UniFilter-96 GF/C 96-well white microplates pre-soaked with 0.3% BSA (10 mL/L of 30% BSA). Plates were dried overnight at 37° C., or for 2 hrs at 56° C. The bottom of the plates were sealed and 0.025 mL of Microscint 0 was added to each well. The plates were top sealed and counted for 2 min/well in a Packard TopCount Scintillation counter. Test compounds were evaluated in a five point titration format using half-log steps from 0.3 μM to 30 μM. […] Less than 5% of the added radioactivity was retained on the filters. Assays were performed in triplicate.
# CWR22rv-1 cells = experiment: CWR22rv-1 prostate cancer cell death (propidium iodide, FACS); assay type: cell-based, human
# Method: CWR22Rv1 cells (ATCC, Manassas, Va.) were seeded in 6 well tissue culture plate at density of 300,000 cells/well and maintained in RPMI 1640 (Mediatech, Herndon, Va.) containing 10% fetal bovine serum, 2.5 mM L-glutamine, and penicillin-streptomycin (100 IU/ml and 100 μg/ml, respectively) at 37° C. with 5% CO2. Cells were then switched to serum free RPMI media overnight prior to drug treatment. Compounds were dissolved in 100% dimethylsulfoxide (DMSO) and diluted to the desired concentrations in serum free RPMI. Cells were treated with indicated drug concentrations (in triplicate per treatment point) for 24, 48, 72 hour. After treatment, cells were harvested by trypsinization and fixed in 70% ethanol. The fixed cells were then stained with propidium iodide (50 μg/ml) after treatment with RNase (5 μg/ml). The stained cells were analyzed for DNA content using FACSsort (Becton Dickinson). Cell cycle fractions were quantified with Cell Quest (Becton Dickinson) or ModFit LT (Verity Software House).
# T2 sequence (Q12809 whole entry): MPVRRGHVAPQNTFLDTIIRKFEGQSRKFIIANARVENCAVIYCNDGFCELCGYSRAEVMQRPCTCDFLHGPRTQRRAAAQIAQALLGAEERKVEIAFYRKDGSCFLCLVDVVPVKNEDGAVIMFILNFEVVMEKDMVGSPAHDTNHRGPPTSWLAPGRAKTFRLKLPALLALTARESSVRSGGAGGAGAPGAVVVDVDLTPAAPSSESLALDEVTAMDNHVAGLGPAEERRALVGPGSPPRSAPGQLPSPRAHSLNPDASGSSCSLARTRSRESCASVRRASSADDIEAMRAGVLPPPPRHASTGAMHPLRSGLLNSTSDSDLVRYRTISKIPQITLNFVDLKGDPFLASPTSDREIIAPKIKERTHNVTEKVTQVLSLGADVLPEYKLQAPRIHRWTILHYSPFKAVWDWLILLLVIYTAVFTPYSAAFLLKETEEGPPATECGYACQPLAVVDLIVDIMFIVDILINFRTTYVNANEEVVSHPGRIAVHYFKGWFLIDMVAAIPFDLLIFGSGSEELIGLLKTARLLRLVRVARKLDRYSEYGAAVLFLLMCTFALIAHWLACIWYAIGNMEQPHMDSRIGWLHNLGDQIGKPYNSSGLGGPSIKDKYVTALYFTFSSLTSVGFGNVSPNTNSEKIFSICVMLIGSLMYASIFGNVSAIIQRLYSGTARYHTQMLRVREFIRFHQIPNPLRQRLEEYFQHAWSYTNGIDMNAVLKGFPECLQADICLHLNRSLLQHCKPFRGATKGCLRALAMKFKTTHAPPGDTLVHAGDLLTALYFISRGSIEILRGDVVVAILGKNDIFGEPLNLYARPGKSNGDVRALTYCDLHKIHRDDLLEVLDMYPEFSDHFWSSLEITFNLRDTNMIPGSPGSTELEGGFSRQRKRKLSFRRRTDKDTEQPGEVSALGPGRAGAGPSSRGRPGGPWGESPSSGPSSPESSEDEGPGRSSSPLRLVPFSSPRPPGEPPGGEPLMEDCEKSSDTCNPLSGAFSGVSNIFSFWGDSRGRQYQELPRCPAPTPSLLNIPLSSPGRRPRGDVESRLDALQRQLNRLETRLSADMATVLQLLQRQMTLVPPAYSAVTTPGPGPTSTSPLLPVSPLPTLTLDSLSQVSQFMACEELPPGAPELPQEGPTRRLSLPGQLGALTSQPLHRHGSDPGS
# T1 sequence (Q15858 whole entry): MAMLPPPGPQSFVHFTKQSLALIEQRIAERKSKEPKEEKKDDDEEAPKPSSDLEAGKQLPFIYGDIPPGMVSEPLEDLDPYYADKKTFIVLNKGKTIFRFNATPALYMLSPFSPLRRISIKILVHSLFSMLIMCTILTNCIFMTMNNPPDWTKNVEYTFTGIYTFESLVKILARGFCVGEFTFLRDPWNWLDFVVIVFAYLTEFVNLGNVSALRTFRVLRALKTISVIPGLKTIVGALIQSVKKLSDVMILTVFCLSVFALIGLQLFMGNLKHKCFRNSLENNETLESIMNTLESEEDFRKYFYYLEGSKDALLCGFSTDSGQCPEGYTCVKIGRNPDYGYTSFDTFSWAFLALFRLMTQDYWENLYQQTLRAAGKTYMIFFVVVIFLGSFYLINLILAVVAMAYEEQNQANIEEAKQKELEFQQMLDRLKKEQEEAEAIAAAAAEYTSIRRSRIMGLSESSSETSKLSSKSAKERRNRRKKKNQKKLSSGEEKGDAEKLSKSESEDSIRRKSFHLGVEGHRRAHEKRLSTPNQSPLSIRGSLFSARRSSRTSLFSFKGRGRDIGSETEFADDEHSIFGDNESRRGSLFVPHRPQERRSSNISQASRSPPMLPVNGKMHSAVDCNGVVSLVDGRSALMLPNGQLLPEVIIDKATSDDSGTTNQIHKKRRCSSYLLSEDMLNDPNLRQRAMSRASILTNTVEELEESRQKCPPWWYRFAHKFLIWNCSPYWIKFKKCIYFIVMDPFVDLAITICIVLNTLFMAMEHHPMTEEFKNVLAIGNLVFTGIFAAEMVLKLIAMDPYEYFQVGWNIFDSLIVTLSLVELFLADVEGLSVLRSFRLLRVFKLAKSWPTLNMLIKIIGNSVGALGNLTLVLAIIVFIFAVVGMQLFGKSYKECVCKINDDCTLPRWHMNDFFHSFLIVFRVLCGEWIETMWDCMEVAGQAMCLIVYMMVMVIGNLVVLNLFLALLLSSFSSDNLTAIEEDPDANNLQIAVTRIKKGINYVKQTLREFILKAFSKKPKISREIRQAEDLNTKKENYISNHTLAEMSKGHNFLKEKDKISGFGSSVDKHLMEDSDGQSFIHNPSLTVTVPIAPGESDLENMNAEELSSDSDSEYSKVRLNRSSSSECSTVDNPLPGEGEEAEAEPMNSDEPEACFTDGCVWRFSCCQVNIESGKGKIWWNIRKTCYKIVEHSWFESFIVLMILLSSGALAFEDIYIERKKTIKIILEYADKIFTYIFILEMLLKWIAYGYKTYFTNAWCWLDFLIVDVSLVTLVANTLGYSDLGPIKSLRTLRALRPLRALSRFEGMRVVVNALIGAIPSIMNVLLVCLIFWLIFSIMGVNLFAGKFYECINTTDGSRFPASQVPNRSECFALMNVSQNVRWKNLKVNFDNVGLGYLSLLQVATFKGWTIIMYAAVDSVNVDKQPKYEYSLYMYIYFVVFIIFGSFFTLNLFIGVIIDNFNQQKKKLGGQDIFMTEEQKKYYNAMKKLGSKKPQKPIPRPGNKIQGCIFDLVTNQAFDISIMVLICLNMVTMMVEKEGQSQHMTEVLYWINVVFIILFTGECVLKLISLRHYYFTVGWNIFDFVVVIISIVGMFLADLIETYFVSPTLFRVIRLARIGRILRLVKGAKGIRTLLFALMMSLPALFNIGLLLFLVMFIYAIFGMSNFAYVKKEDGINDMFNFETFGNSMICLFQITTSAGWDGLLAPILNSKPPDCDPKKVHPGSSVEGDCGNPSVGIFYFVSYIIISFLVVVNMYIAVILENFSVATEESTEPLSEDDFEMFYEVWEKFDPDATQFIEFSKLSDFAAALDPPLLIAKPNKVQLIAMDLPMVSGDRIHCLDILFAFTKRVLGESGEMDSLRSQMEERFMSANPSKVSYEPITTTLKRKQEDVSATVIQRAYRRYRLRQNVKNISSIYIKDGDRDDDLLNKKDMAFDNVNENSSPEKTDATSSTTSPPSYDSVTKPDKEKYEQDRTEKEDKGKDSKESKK
compound,measurement,setting,value
"CCCCCCCC(O)(C(N)=O)c1cccc(Cl)c1 (racemic) [(±)-1, 2-(3-chloro-phenyl)-2-hydroxy-nonanoic acid amide]",IC50,hNav1.7,1810 nM
same,acute rotorod toxicity observations,[1],"No deaths, spasms, respiratory disease was reported"
same,decrease in tumor volume,[2],62%
same,"% inhibition for hERG assay, 0.3 μM",hERG potassium channels; 0.3 μM,15%
same,"% inhibition for hERG assay, 1 μM",hERG potassium channels; 1 μM,17%
same,"% inhibition for hERG assay, 3 μM",hERG potassium channels; 3 μM,15%
same,"% inhibition for hERG assay, 10 μM",hERG potassium channels; 10 μM,51%
same,"% inhibition for hERG assay, 30 μM",hERG potassium channels; 30 μM,78%
same,cell death of CWR22rv-1 cells,"CWR22rv-1 cells; 25 μM, after 24 h",marginal effects
same,cell death of CWR22rv-1 cells,CWR22rv-1 cells; after 72 h,25%
